Results reported in patent US9113629B2, “4-amino-6-(4-substituted-phenyl)-picolinates and 6-amino-2-(4-substituted-phenyl)-pyrimidine-4-carboxylates and their use as herbicides” (DOW AGROSCIENCES LLC, priority 2013, dated 2015).
Read-outs that look alike come from different tables or passages of the source.

What was measured:
[1] = tested on: Key Broadleaf Weed and Crop Species; experiment: Post-emergent Test II herbicidal activity (Table 5); format: in vivo; conditions: post-emergence, 336 h, 14 days after application; for pest or weed control at 70 g/ha: application rate 70 g ai/ha; for pest or weed control at 140 g/ha: application rate 140 g ai/ha
Summary of the method: (§1)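 Test species were raised 7–21 d under greenhouse conditions until reaching the first or second true leaf, sprayed with formulated compound at 187 L/ha, and kept subirrigated to avoid wash-off. Fourteen days later, damage was rated visually on a 0–100% scale against untreated plants.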

[2] = tested on: Key Grass and Sedge Weeds as well as Grass Crops; experiment: Post-emergent Test II herbicidal activity (Table 6); format: in vivo; conditions: post-emergence, 336 h; for pest or weed control at 70 g/ha: 70 g ai/ha; for pest or weed control at 140 g/ha: 140 g ai/ha
Summary of the method: as §1

[3] = ABUTH: velvetleaf (Abutilon theophrasti), read-out: Visual Growth Reduction (%) 14 Days After Application, ABUTH
[4] = AMARE: redroot pigweed (Amaranthus retroflexus), read-out: Visual Growth Reduction (%) 14 Days After Application, AMARE
[5] = BRSNN: oilseed-rape, canola (Brassica napus), read-out: Visual Growth Reduction (%) 14 Days After Application, BRSNN
[6] = CHEAL: lambsquarters (Chenopodium album), read-out: Visual Growth Reduction (%) 14 Days After Application, CHEAL
[7] = EPHHL: wild poinsettia (Euphorbia heterophylla), read-out: Visual Growth Reduction (%) 14 Days After Application, EPHHL
[8] = HELAN: sunflower (Helianthus annuus), read-out: Visual Growth Reduction (%) 14 Days After Application, HELAN
[9] = VIOTR: wild pansy (Viola tricolor), read-out: Visual Growth Reduction (%) 14 Days After Application, VIOTR
[10] = CYPES: yellow nutsedge (Cyperus esculentus), read-out: Visual Growth Reduction (%) 14 Days After Application, CYPES
[11] = DIGSA: crabgrass (Digitaria sanguinalis), read-out: Visual Growth Reduction (%) 14 Days After Application, DIGSA
[12] = ECHCG: barnyardgrass (Echinochloa crus-galli), read-out: Visual Growth Reduction (%) 14 Days After Application, ECHCG
[13] = ORYSA: rice (Oryza sativa), crop, read-out: Visual Growth Reduction (%) 14 Days After Application, ORYSA
[14] = SETFA: giant foxtail (Setaria faberi), read-out: Visual Growth Reduction (%) 14 Days After Application, SETFA
[15] = SORVU: grain sorghum (Sorghum vulgare), read-out: Visual Growth Reduction (%) 14 Days After Application, SORVU
[16] = TRZSS (wheat, Triticum aestivum), crop, read-out: Visual Growth Reduction (%) 14 Days After Application, TRZSS
[17] = ZEAMX: maize, corn (Zea mays), crop, read-out: Visual Growth Reduction (%) 14 Days After Application, ZEAMX

With `Nc1cc(-c2ccc(Br)cc2)nc(C(=O)O)c1Cl` [Compound 168] the pest or weed control at 70 g/ha [1, 3] was 95 to 100%, the pest or weed control at 140 g/ha [1, 3] was 95 to 100% and the pest or weed control at 70 g/ha [1, 4] was 95 to 100%. The pest or weed control at 140 g/ha [1, 4] was 95 to 100%, the pest or weed control at 70 g/ha [1, 5] was 95 to 100% and the pest or weed control at 140 g/ha [1, 5] was 95 to 100%. The pest or weed control at 70 g/ha [1, 6] was 95 to 100%, the pest or weed control at 140 g/ha [1, 6] was 95 to 100% and the pest or weed control at 70 g/ha [1, 7] was 95 to 100%. It also gave a pest or weed control at 140 g/ha [1, 7] of 95 to 100%, a pest or weed control at 70 g/ha [1, 8] of 95 to 100% and a pest or weed control at 140 g/ha [1, 8] of 95 to 100%. The pest or weed control at 70 g/ha [1, 9] was 0 to 29%, the pest or weed control at 140 g/ha [1, 9] was 30 to 44% and the pest or weed control at 70 g/ha [2, 10] was 95 to 100%. For the same molecule, the pest or weed control at 140 g/ha [2, 10] was 95 to 100%, the pest or weed control at 70 g/ha [2, 11] was 75 to 84% and the pest or weed control at 140 g/ha [2, 11] was 75 to 84%. The pest or weed control at 70 g/ha [2, 12] was 95 to 100%, the pest or weed control at 140 g/ha [2, 12] was 95 to 100% and the pest or weed control at 70 g/ha [2, 13] was 0 to 29%. It also gave a pest or weed control at 140 g/ha [2, 13] of 0 to 29%, a pest or weed control at 70 g/ha [2, 14] of 95 to 100% and a pest or weed control at 140 g/ha [2, 14] of 95 to 100%. For the same molecule, the pest or weed control at 70 g/ha [2, 15] was 95 to 100%, the pest or weed control at 140 g/ha [2, 15] was 95 to 100% and the pest or weed control at 70 g/ha [2, 16] was 60 to 74%. It also gave a pest or weed control at 140 g/ha [2, 16] of 60 to 74%, a pest or weed control at 70 g/ha [2, 17] of 95 to 100% and a pest or weed control at 140 g/ha [2, 17] of 95 to 100%.
